# Laboratory results from patent US20240116875A1, “RATIONAL DESIGN, OPTIMIZATION, AND BIOLOGICAL EVALUATION OF NOVEL MEK4 INHIBITORS AGAINST PANCREATIC ADENOCARCINOMA” (NORTHWESTERN UNIVERSITY, priority 2022, published 2024).
# “Also recorded” adds a separate entry of the source. Read-outs that look alike come from different tables or passages of the source.
# Key:
# CD18 cells = experiment: cell proliferation (cell count after 72 hours), CD18; format: cell-based, human; settings: CD18, 72 hours, varying doses, single agent
# Protocol: (§1) After 72 hours, cells were trypsinized, counted, and the cell numbers were normalized against the DMSO treatment. Mean±SD. Graphs are representative of 3 biological replicates.
# as §1
# (§2) Cell numbers from different treatments were normalized against the DMSO treatment, and CDI is calculated as follows: CDI=AB/(A×B), with AB being the ratio of the combination groups to control group and A or B being the ratio of the single agent group to the DMSO group. Mean±SEM from 3 biological replicates.
# (§3) We also examined the effects of these inhibitors on JNK phosphorylation and proliferation of two pancreatic cancer cell lines (CD18 and MiaPaCa2).
# (§4) Human pancreatic cancer cell lines (CD18/HPAF-II and MiaPaCa2) and HEK293T cells were obtained from American Type Culture Collection. All cell lines were cultured according to the manufacturer's protocol. All media contained 10% Fetal Bovine Serum (FBS) and antibiotics (100 U/mL Penicillin and 100 μg/mL Streptomycin).
# [1] = system: JNK phosphorylation in MiaPaCa2 cells; experiment: anisomycin-induced JNK phosphorylation, western blotting, MiaPaCa2; format: cell-based, human; settings: MiaPaCa2, anisomycin 45 minutes then compound 5 hours
# Protocol: (§5) HSP90 was used as loading control. The blots are representative of at least three biological replicates.
# as §3, §4
# (§6) Whole cell extracts of cultured cells were prepared in radioimmunoprecipitation (RIPA) lysis buffer supplemented with phosphatase and protease inhibitors (Calbiochem). Protein concentration was determined by the bicinchoninic acid assay (BCA) (ThermoFisher) and separated by the SDS-PAGE technique. […] Secondary anti-mouse IgG (A4416) and anti-rabbit IgG (A6667) antibodies were purchased from Sigma-Aldrich and used a 1:4000 dilution. Images of blots were acquired on HyBlot ES Autoradiography Film (Thomas Scientific, Swedesboro, NJ, USA) following incubation with SuperSignal West Pico PLUS (ThermoFisher).
# [2] = liver microsome stability study (BioDuro-Sundia)
# MiaPaCa2 cells = experiment: cell proliferation (cell count after 72 hours), MiaPaCa2; format: cell-based, human; settings: MiaPaCa2, 72 hours, varying doses, single agent
# Protocol: as §1, §1, §2, §3, §4
# CYP isoforms 3A4/5 = experiment: CYP inhibition, 3A4/5
# [3] = system: JNK phosphorylation in CD18 cells; experiment: anisomycin-induced JNK phosphorylation, western blotting, CD18; format: cell-based, human; settings: CD18, anisomycin 45 minutes then compound 5 hours
# Protocol: as §5, §3, §4, §6
# CYP 2D6 = CYP 2D6 (Homo sapiens, UniProt P10635); experiment: CYP inhibition, 2D6
# MEK7 = molecular target: T1, MEK7 (Homo sapiens, UniProt O14733); experiment: ADP-Glo kinase activity assay, MEK7; format: biochemical
# T1 construct: purchased Carna Biosciences
# T1 sequence (O14733 1-419): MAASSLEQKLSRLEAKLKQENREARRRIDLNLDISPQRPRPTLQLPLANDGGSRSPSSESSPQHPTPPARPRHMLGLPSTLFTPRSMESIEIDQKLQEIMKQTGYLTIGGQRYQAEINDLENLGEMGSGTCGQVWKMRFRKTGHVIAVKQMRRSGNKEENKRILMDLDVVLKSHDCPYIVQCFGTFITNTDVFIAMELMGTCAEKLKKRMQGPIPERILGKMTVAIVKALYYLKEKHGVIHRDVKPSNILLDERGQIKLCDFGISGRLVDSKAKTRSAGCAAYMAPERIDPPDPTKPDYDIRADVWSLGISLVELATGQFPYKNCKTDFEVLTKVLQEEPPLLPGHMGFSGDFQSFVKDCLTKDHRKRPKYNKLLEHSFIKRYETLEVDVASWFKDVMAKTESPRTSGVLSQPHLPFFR
# Protocol: The compounds were then evaluated both in vitro and in a cellular system. When studying kinase inhibitors, there are a multitude of ways to evaluate selectivity across kinases.
# Procedure for a 5 μL Kinase reaction using the ADP-Glo Kinase Assay Kit from Promega. Staurosporine was used as the positive control, and DMSO as the negative control. Activity of recombinant active full-length human MEK4 (Carna Biosciences) was measured using the ADP-Glo assay with recombinant full-length human p38α (MAPK14). Kinase reactions with MEK7 (Carna Biosciences) were done at the same concentration and amounts with recombinant full-length human p38α (MAPK14).
# For each well, 4 ng of MEK4 and 600 ng of p38α in Kinase buffer (CST) were used, and 1 μL of this mixture was dispensed per well.
# Inhibitor was prepared in a DMSO solution. A dose response dilution was done in a 384-well Echo transfer plate. […] This mixture was allowed to incubate for 30 minutes at room temperature.
# Using a Mantis, 1 μL, of an 8 μM ATP solution was added to each well, and the plate was allowed to incubate for another 1 hour at room temperature. […] All experiments were done in triplicate on the plate, and at least in one separate technical duplicate.
# [4] = system: phospho-p42/44 MAPK in CD18 cells; experiment: p42/44 MAPK phosphorylation, western blotting, CD18; format: cell-based, human; settings: CD18, MEK4 inhibitor 10 μM, 5 hours
# Protocol: (§7) The effects of different treatments on phospho-p42/44 MAPK and total p42/44 MAPK expression levels were determined by western blotting. HSP90 was used as loading control. The blots are representative of at least three biological replicates.
# as §6
# [5] = system: phospho-p38 MAPK in HEK293T cells; experiment: p38 MAPK phosphorylation, western blotting, HEK293T; format: cell-based, human; settings: anisomycin pretreatment, compound 100 μM, 5 hours
# Protocol: as §5
# (§8) We next evaluated the effects of our inhibitors on the phosphorylation activity and expression of MEK1/2, MEK3/6, and MEK7. […] We also evaluated the effects on p42/44 MAPK (ERK1/2), which functions downstream of MEK1/2.
# as §6
# CYP 1A2 = CYP 1A2 (Homo sapiens, UniProt P05177)
# [6] = PAMPA assay (BioDuro-Sundia); format: in vitro ADME
# CYP 2C9 = CYP 2C9 (Homo sapiens, UniProt P11712); experiment: CYP inhibition, 2C9
# [7] = Log D study (BioDuro-Sundia); settings: pH of 7.4
# [8] = system: phospho-p42/44 MAPK in MiaPaCa2 cells; experiment: p42/44 MAPK phosphorylation, western blotting, MiaPaCa2; format: cell-based, human; settings: MiaPaCa2, MEK4 inhibitor 10 μM, 5 hours
# Protocol: as §7, §6
# [9] = system: JNK phosphorylation in HEK293T cells; experiment: anisomycin-induced JNK phosphorylation, western blotting, HEK293T; format: cell-based, human; settings: anisomycin 45 minutes then compound 5 hours, increasing doses
# Protocol: The blots are representative of at least three biological replicates.
# as §3, §4, §6
# [10] = system: phospho-p42/44 MAPK in HEK293T cells; experiment: p42/44 MAPK (ERK1/2) phosphorylation, western blotting, HEK293T; format: cell-based, human; settings: anisomycin pretreatment, compound 100 μM, 5 hours
# Protocol: as §5, §8, §6
# [11] = system: MEK7 expression in HEK293T cells; experiment: MEK7 expression, western blotting, HEK293T; format: cell-based, human; settings: anisomycin pretreatment, compound 100 μM, 5 hours
# Protocol: as §5, §8, §6
# HEK293T cells = experiment: cell proliferation (cell count after 72 hours), HEK293T; format: cell-based, human; settings: varying doses
# Protocol: After 72 hours, cells were trypsinized, counted, and the cell numbers were normalized against the DMSO treatment. Mean±SD. Graphs are representative of 3 biological replicates. One-way ANOVA; ns, non-significant **, p<0.01 ***, p<0.001.
# as §3, §4
# CYP 2C19 = CYP 2C19 (Homo sapiens, UniProt P33261); experiment: CYP inhibition, 2C19
# Caco-2 = Caco-2 permeability assay; format: in vitro ADME
# Cot = Cot (Homo sapiens, UniProt P41279); settings: cited from earlier work
# Cot, sequence (P41279 whole entry): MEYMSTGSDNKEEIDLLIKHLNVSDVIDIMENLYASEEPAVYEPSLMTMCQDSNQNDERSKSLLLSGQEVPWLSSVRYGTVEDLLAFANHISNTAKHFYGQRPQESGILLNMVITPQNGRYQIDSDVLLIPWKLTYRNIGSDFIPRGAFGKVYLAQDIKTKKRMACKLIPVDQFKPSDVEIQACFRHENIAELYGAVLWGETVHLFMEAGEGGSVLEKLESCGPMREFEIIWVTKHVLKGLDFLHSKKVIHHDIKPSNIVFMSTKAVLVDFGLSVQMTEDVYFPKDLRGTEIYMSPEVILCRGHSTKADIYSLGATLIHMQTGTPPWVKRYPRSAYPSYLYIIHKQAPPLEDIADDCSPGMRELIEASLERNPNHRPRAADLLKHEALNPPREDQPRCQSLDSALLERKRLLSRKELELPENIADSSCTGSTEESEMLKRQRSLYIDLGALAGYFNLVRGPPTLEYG
# CYP 2C19, sequence (P33261 whole entry): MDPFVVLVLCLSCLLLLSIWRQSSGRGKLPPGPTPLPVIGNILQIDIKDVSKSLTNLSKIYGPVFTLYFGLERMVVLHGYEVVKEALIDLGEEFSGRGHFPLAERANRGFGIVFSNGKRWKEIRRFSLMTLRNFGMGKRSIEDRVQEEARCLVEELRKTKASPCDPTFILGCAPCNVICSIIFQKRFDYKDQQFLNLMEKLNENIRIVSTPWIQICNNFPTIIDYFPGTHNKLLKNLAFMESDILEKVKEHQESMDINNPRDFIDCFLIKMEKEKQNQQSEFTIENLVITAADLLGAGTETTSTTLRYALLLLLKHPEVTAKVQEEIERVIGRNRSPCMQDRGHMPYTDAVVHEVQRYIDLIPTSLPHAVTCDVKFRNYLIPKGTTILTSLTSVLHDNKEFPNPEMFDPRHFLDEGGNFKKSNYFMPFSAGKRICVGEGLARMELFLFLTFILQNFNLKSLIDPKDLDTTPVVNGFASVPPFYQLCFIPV
# CYP 1A2, sequence (P05177 whole entry): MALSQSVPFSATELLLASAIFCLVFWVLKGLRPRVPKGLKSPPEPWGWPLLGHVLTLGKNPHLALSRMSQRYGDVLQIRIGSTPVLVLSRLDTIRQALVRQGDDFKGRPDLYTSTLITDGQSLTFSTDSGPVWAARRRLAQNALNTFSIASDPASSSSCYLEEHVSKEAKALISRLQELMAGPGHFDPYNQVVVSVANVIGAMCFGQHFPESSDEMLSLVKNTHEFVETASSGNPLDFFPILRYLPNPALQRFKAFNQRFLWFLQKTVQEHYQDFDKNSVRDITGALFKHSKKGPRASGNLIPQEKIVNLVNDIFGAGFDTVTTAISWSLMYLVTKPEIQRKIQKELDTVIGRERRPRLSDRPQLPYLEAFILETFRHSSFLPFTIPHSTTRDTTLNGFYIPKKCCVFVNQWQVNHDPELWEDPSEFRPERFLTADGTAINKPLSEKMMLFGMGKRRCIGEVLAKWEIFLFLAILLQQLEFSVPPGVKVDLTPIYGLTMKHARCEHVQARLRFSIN
# CYP 2D6, sequence (P10635 whole entry): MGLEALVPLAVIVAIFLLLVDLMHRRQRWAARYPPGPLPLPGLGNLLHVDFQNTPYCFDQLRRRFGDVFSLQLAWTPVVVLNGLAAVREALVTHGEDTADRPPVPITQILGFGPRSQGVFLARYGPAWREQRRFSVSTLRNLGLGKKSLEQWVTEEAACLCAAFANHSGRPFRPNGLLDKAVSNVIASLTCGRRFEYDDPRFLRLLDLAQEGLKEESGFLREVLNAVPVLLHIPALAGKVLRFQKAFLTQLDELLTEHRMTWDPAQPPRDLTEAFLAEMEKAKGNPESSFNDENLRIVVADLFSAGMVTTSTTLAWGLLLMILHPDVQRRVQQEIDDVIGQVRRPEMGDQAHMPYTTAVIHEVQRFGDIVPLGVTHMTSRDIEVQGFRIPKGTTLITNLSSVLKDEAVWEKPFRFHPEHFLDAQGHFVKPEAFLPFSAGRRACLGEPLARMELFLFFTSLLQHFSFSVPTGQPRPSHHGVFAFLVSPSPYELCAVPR
# CYP 2C9, sequence (P11712 whole entry): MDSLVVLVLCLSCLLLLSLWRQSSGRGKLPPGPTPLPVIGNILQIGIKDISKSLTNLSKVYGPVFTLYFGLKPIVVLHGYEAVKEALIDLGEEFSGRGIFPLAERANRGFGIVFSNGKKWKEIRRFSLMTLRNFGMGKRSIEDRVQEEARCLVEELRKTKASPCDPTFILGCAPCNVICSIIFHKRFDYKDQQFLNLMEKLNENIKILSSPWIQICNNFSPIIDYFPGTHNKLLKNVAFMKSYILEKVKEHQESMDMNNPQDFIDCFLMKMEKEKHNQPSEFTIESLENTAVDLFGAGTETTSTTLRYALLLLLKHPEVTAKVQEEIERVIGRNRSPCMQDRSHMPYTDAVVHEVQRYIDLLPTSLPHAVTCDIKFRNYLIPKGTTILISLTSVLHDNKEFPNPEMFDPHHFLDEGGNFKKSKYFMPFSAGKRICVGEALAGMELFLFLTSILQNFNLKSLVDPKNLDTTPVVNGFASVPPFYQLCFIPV
smiles,measurement,setting,value
"NS(=O)(=O)c1ccc(-c2n[nH]c3cc(F)ccc23)cc1 [Compound 10e, 4-(6-fluoro-1H-indazol-3-yl)benzenesulfonamide]",cell proliferation,CD18 cells,decreased proliferation; also recorded: antiproliferative properties
same,effect on anisomycin-induced JNK phosphorylation,[1],attenuated anisomycin-induced JNK phosphorylation
same,half-life in the microsome assay,[2]; liver microsome,1.9 h
same,stability in the microsome assay,[2]; microsomes,good stability
same,cell proliferation,MiaPaCa2 cells,decreased proliferation; also recorded: antiproliferative properties
same,inhibition of CYP isoforms 3A4/5,CYP isoforms 3A4/5,did not inhibit
same,effect on anisomycin-induced JNK phosphorylation,[3],attenuated anisomycin-induced JNK phosphorylation
same,inhibition of CYP 2D6,CYP 2D6,avoided inhibiting
same,IC50,MEK7,520 ± 670 nM
same,IC50,"MEK7; headline value per compound, read-out: MEK7 IC50",540 nM
same,IC50,"MEK7; individual experiment, values in brackets, n=3, read-out: MEK7 IC50 of each experiment (IC50±SEM)",560 ± 220 nM
same,effect on p42/44 MAPK phosphorylation,[4],increased p42/44 MAPK phosphorylation
same,effect on anisomycin-induced p38 MAPK phosphorylation,[5],not affected
same,inhibition of CYP 1A2,CYP 1A2,inhibited
same,permeability in the PAMPA assay,[6],performed slightly better
same,inhibition of CYP 2C9,CYP 2C9,avoided inhibiting
same,log D,[7],2.80
same,effect on p42/44 MAPK phosphorylation,[8],did not induce p42/44 MAPK phosphorylation
same,effect on anisomycin-induced JNK phosphorylation,[9],attenuated anisomycin-induced INK phosphorylation in a dose-dependent manner
same,effect on p42/44 MAPK phosphorylation after anisomycin,[10],reversed the effects of anisomycin
same,effect on the expression of MEK7,[11],no effect
same,cell proliferation,HEK293T cells,decreased. HEK293T cell proliferation in a dose-dependent manner
same,inhibition of CYP 2C19,CYP 2C19,inhibited
same,Caco-2 permeability,Caco-2,medium to high permeability
"O=c1c(-c2ccc(O)c(O)c2)coc2cc(O)ccc12 [THIF, 7,3′,4′-trihydroxyisoflavone]",Cot activity (literature),Cot,inhibits
